Experimental data reported in patent US20200048308A1, “INFLUENZA VIRUS NE[…]” (priority 2016, published 2020).
Like-named read-outs stand apart in the source and are kept apart here. Where a SMILES comes first, the peptide text is derived from it.

Columns and labels:
[1] = biological target: H1/Cal HA (biotinylated full length trimeric HA, A/California/07/2009) (Influenza A virus, UniProt C3W5X2); assay: AlphaLISA competition assay with HB80.4, H1/Cal HA; type: binding, influenza A virus H1N1 A/California/07/2009
From the text: (§1) Binding competition studies were designed to test compounds of the invention for competition with other well characterized HA binding proteins (such as e.g. CR9114, CR6261 and HB80.4) with known epitopes on HA. The epitopes where either located at the stem of the HA (viral membrane proximal part of HA) or, for control purposes, at the head of HA (viral membrane distal part of HA). If competition was observed, it was assumed that both molecules bind to a similar or at least overlapping epitope at the surface of HA. Competition with a HA head- and stem-binder was interpreted as unspecific binding.
(§2) Hereto an AlphaLISA competition assay (Perkin Elmer) was established which relied on biotinylated full length and trimeric HA proteins (Protein Sciences, 10 μL, 0.5 nM final concentration in 50 μL) bound by HA-specific binders. The interaction between HA and the binder was detected after 1 h incubation at room temperature (RT) with two beads, a streptavidin donor bead recognizing HA (10 μL of 10 μg/mL) and an anti Fc bead (10 μg/mL) recognizing the IgGs used. If after an additional hour of incubation at RT the excited donor bead (680 nm) and acceptor bead are in close proximity, an energy transfer (singlet oxygen) can be measured as a luminescence signal of the acceptor bead (Perkin Elmer EnVision plate reader). The signal intensity in this homogeneous assay format is directly proportional to the binding strength (affinity/avidity) between both binding partners.

[2] = biological target: H1/Nca HA (biotinylated full length trimeric HA, A/New Caledonia/20/1999) (Influenza A virus, UniProt Q6WG00); assay: AlphaLISA competition assay with HB80.4, H1/NCa HA; type: binding, influenza A virus H1N1 A/New Caledonia/20/1999
From the text: as §1, §2

[3] = system: influenza virus A/New Caledonia (H1); assay: Virus neutralization assay (VNA) on Calu-3 cells; type: cell-based, influenza A virus H1N1 A/New Caledonia/20/1999
[4] = ALC_H1_NCa_HB80.4 calculated pIC50, AlphaLISA competition with HB80.4 on H1 NCa HA, 0.5 nM HA

| Structure (SMILES) | IC50 [1] [µM] | IC50 [2, 4] [µM] | VNA_H1_NCa_Calu3 pIC50 ([3]; Calu-3 cells, 5 TCID50/50 μL virus, 4 days, NP ELISA readout) | IC50 [2] [µM] | VNA_H1_NCa_Calu3 pIC50 [3] |
| --- | --- | --- | --- | --- | --- |
| CSCC[C@@H]1NC(=O)CNC(=O)CNC(=O)[C@H](C)NC(=O)[C@H](C(C)C)NC(=O)CNC(=O)[C@H](CC(C)C)NC(=O)[C@@H]2CCCN2C(=O)[C@H](CC(=O)O)NC(=O)[C@H](CCC(=O)O)NC(=O)[C@H](Cc2ccc(O)cc2)NC(=O)[C@H](CC(C)C)NC(=O)[C@@H](NC(=O)CCC(=O)O)CSSC[C@@H](C(N)=O)NC(=O)CNC1=O [CP141069, Suc-Cys-Leu-Tyr-Glu-Asp-Pro-Leu-Gly-Val-Ala-Gly-Gly-Met-Gly-Cys-NH2] | 0.316 | 0.158 | 6.1 |  |  |
| CSCC[C@@H]1NC(=O)CNC(=O)CNC(=O)[C@H](C)NC(=O)[C@H](C(C)C)NC(=O)CNC(=O)[C@H](CC(C)C)NC(=O)[C@@H]2CCCN2C(=O)[C@H](CC(=O)O)NC(=O)[C@H](CCC(=O)O)NC(=O)[C@H](Cc2ccc(O)cc2)NC(=O)[C@@H](NC(=O)CCC(=O)O)CSSC[C@@H](C(N)=O)NC1=O [CP141070, Suc-Cys-Tyr-Glu-Asp-Pro-Leu-Gly-Val-Ala-Gly-Gly-Met-Cys-NH2] | 6.31 |  |  | 3.98 | 4.4 |
| CSCC[C@@H]1NC(=O)[C@H](CCC(=O)O)NC(=O)CNC(=O)[C@H](C)NC(=O)[C@H](C(C)C)NC(=O)CNC(=O)[C@H](CC(C)C)NC(=O)[C@@H]2CCCN2C(=O)[C@H](CC(=O)O)NC(=O)[C@H](CCCNC(=N)N)NC(=O)[C@H](Cc2ccc(O)cc2)NC(=O)[C@H](CC(C)C)NC(=O)[C@@H](NC(=O)CCC(=O)O)CSSC[C@@H](C(N)=O)NC(=O)CNC1=O [CP141071, Suc-Cys-Leu-Tyr-Arg-Asp-Pro-Leu-Gly-Val-Ala-Gly-Glu-Met-Gly-Cys-NH2] (HELM PEPTIDE1{[O=C(O)CCC(=O)[*:2]].C.L.Y.R.D.P.L.G.V.A.G.E.M.G.C.[am]}$PEPTIDE1,PEPTIDE1,2:R3-16:R3$$$V2.0) | 0.501 | 2 |  |  |  |
| CSCC[C@@H]1NC(=O)[C@H](CCC(=O)O)NC(=O)CNC(=O)[C@H](C)NC(=O)[C@H](C(C)C)NC(=O)CNC(=O)[C@H](CC(C)C)NC(=O)[C@@H]2CCCN2C(=O)[C@H](CC(=O)O)NC(=O)[C@H](CCCNC(=N)N)NC(=O)[C@H](Cc2ccc(O)cc2)NC(=O)[C@@H](NC(=O)CCC(=O)O)CSSC[C@@H](C(N)=O)NC1=O [CP141072, Suc-Cys-Tyr-Arg-Asp-Pro-Leu-Gly-Val-Ala-Gly-Glu-Met-Cys-NH2] | 15.8 |  |  | 12.6 |  |
| CSCC[C@H](NC(=O)CNC(=O)CNC(=O)[C@H](C)NC(=O)[C@@H](NC(=O)CNC(=O)[C@H](CC(C)C)NC(=O)[C@@H]1CCCN1C(=O)[C@H](CC(=O)O)NC(=O)[C@H](CCCNC(=N)N)NC(=O)[C@H](Cc1ccc(O)cc1)NC(=O)[C@H](CC(C)C)NC(=O)[C@H](CO)NC(=O)[C@@H](NC(=O)CCC(=O)O)C(C)C)C(C)C)C(=O)NCC(=O)N[C@H](C(=O)N[C@@H](Cc1ccc(O)cc1)C(N)=O)C(C)C [CP141073, Suc-Val-Ser-Leu-Tyr-Arg-Asp-Pro-Leu-Gly-Val-Ala-Gly-Gly-Met-Gly-Val-Tyr-NH2] | 2 | 6.31 |  |  |  |
| CSCC[C@H](NC(=O)CNC(=O)CNC(=O)[C@H](C)NC(=O)[C@@H](NC(=O)CNC(=O)[C@H](CC(C)C)NC(=O)[C@@H]1CCCN1C(=O)[C@H](CC(=O)O)NC(=O)[C@H](CCC(=O)O)NC(=O)[C@H](Cc1ccc(O)cc1)NC(=O)[C@H](CC(C)C)NC(=O)[C@H](CO)NC(=O)[C@@H](NC(=O)CCC(=O)O)C(C)C)C(C)C)C(=O)NCC(=O)N[C@H](C(=O)N[C@@H](Cc1ccc(O)cc1)C(N)=O)C(C)C [CP141074, Suc-Val-Ser-Leu-Tyr-Glu-Asp-Pro-Leu-Gly-Val-Ala-Gly-Gly-Met-Gly-Val-Tyr-NH2] | 3.98 | 5.01 |  |  |  |
| CSCC[C@H](NC(=O)[C@H](CCC(=O)O)NC(=O)CNC(=O)[C@H](C)NC(=O)[C@@H](NC(=O)CNC(=O)[C@H](CC(C)C)NC(=O)[C@@H]1CCCN1C(=O)[C@H](CC(=O)O)NC(=O)[C@H](CCCNC(=N)N)NC(=O)[C@H](Cc1ccc(O)cc1)NC(=O)[C@H](CC(C)C)NC(=O)[C@H](CO)NC(=O)[C@@H](NC(=O)CCC(=O)O)C(C)C)C(C)C)C(=O)NCC(=O)N[C@H](C(=O)N[C@@H](Cc1ccc(O)cc1)C(N)=O)C(C)C [CP141075, Suc-Val-Ser-Leu-Tyr-Arg-Asp-Pro-Leu-Gly-Val-Ala-Gly-Glu-Met-Gly-Val-Tyr-NH2] (HELM PEPTIDE1{[O=C(O)CCC(=O)[*:2]].V.S.L.Y.R.D.P.L.G.V.A.G.E.M.G.V.Y.[am]}$$$$V2.0) | 10 | 50.1 |  |  |  |
| CCCC[C@H](NC(=O)CNC(=O)CNC(=O)[C@H](C)NC(=O)[C@@H](NC(=O)CNC(=O)[C@H](CC(C)C)NC(=O)[C@@H]1CCCN1C(=O)[C@H](CC(=O)O)NC(=O)[C@H](CCCNC(=N)N)NC(=O)[C@H](Cc1ccc(O)cc1)NC(=O)[C@H](CC(C)C)NC(=O)[C@H](CO)NC(=O)[C@@H](NC(=O)CCC(=O)O)C(C)C)C(C)C)C(=O)NCC(=O)N[C@H](C(=O)N[C@@H](Cc1ccc(O)cc1)C(N)=O)C(C)C [CP141081, Suc-Val-Ser-Leu-Tyr-Arg-Asp-Pro-Leu-Gly-Val-Ala-Gly-Gly-Nlu-Gly-Val-Tyr-NH2] | 3.16 |  |  | 7.94 |  |
| CSCC[C@@H]1NC(=O)CNC(=O)CNC(=O)[C@H](C)NC(=O)[C@H](C(C)C)NC(=O)CNC(=O)[C@H](CC(C)C)NC(=O)[C@@H]2CCCN2C(=O)[C@H](CC(=O)O)NC(=O)[C@H](CCC(=O)O)NC(=O)[C@H](Cc2ccc(O)cc2)NC(=O)[C@H](CC(C)C)NC(=O)[C@H](CO)NC(=O)[C@H]2CCCN2C(=O)CNC(=O)[C@H](C(C)C)NC(=O)CNC1=O [CP141083, D-Pro-Ser-Leu-Tyr-Glu-Asp-Pro-Leu-Gly-Val-Ala-Gly-Gly-Met-Gly-Val-Gly] | 5.01 |  |  | 10 |  |
| CCCC[C@@H]1NC(=O)[C@H](CCC(=O)O)NC(=O)CNC(=O)[C@H](C)NC(=O)[C@H](C(C)C)NC(=O)CNC(=O)[C@H](CC(C)C)NC(=O)[C@@H]2CCCN2C(=O)[C@H](CC(=O)O)NC(=O)[C@H](CCCNC(=N)N)NC(=O)[C@H](Cc2ccc(O)cc2)NC(=O)[C@@H](NC(=O)CCC(=O)O)CSSC[C@@H](C(N)=O)NC1=O [CP141089, Suc-Cys-Tyr-Arg-Asp-Pro-Leu-Gly-Val-Ala-Gly-Glu-Nlu-Cys-NH2] | 25.1 |  |  | 50.1 |  |
| CC[C@H](NC(=O)[C@@H](NC(=O)CNC(=O)[C@H](CCCc1ccccc1)NC(=O)[C@@H]1CCCN1C(=O)[C@H](CC(=O)O)NC(=O)[C@H](CCCNC(=N)N)NC(=O)[C@H](Cc1ccc(O)cc1)NC(=O)[C@H](CC(C)C)NC(=O)[C@H](CO)NC(=O)[C@@H](NC(=O)CCC(=O)O)C(C)C)C(C)C)C(=O)NCC(=O)N[C@@H](CCC(=O)O)C(=O)N[C@@H](CCSC)C(=O)NCC(=O)N[C@H](C(=O)N[C@@H](Cc1ccc(O)cc1)C(N)=O)C(C)C [CP141090, Suc-Val-Ser-Leu-Tyr-Arg-Asp-Pro-Ph5-Gly-Val-Abu-Gly-Glu-Met-Gly-Val-Tyr-NH2] (HELM PEPTIDE1{[O=C(O)CCC(=O)[*:2]].V.S.L.Y.R.D.P.[O=C([C@H](CCCc1ccccc1)N[*:1])[*:2]].G.V.[Abu].G.E.M.G.V.Y.[am]}$$$$V2.0) | 10 |  |  | 15.8 |  |
| CC[C@@H]1NC(=O)[C@H](C(C)C)NC(=O)CNC(=O)[C@H](CCCc2ccccc2)NC(=O)[C@@H]2CCCN2C(=O)[C@H](CC(=O)O)NC(=O)[C@H](CCC(=O)O)NC(=O)[C@H](Cc2ccc(O)cc2)NC(=O)[C@H](CC(C)C)NC(=O)CNC(=O)[C@H]2CCCN2C(=O)CNC(=O)[C@H](CCSC)NC(=O)CNC(=O)CNC1=O [CP141092, Gly-Leu-Tyr-Glu-Asp-Pro-Ph5-Gly-Val-Abu-Gly-Gly-Met-Gly-D-Pro] (HELM PEPTIDE1{[Abu].G.G.M.G.[dP].G.L.Y.E.D.P.[O=C([C@H](CCCc1ccccc1)N[*:1])[*:2]].G.V}$PEPTIDE1,PEPTIDE1,1:R1-15:R2$$$V2.0) | 0.398 |  |  | 0.251 |  |
| CC[C@@H]1NC(=O)[C@H](C(C)C)NC(=O)CNC(=O)[C@H](CCCc2ccccc2)NC(=O)[C@@H]2CCCN2C(=O)[C@H](CC(=O)O)NC(=O)[C@H](CCCNC(=N)N)NC(=O)[C@H](Cc2ccc(O)cc2)NC(=O)[C@@H](NC(=O)CCC(=O)O)CSSC[C@@H](C(N)=O)NC(=O)[C@H](CCSC)NC(=O)[C@H](CCC(=O)O)NC(=O)CNC1=O [CP141093, Suc-Cys-Tyr-Arg-Asp-Pro-Ph5-Gly-Val-Abu-Gly-Glu-Met-Cys-NH2] (HELM PEPTIDE1{[O=C(O)CCC(=O)[*:2]].C.Y.R.D.P.[O=C([C@H](CCCc1ccccc1)N[*:1])[*:2]].G.V.[Abu].G.E.M.C.[am]}$PEPTIDE1,PEPTIDE1,2:R3-14:R3$$$V2.0) | 10 |  |  | 20 |  |
